ChEMBL document CHEMBL1130811, “An enantioselective fluorimetric assay for alcohol dehydrogenases using albumin-catalyzed beta-elimination of umbelliferone” (Bioorg Med Chem Lett, 1998)

Key:
[1] = Michaelis-Menten kinetics of the bovine serum albumin catalyzed reaction of the compound; assay type: ADME, Bos taurus; details: cattle
[2] = Half life in presence of 2 mg/mL BSA at pH 8.8; assay type: ADME, Bos taurus; details: cattle, bovine serum albumin solution
[3] = Rate constant of the bovine serum albumin catalyzed reaction of the compound; assay type: ADME, Bos taurus; details: cattle
[4] = Specificity constant of the bovine serum albumin catalyzed reaction expressed as (kcat/KM)/kuncat; assay type: ADME, Bos taurus; details: cattle
[5] = Specificity constant of the BSA-catalyzed deprotonation of compound at pH 9; assay type: ADME, Bos taurus; details: cattle
[6] = system: alcohol dehydrogenase (Thermoanaerobacter brockii); experiment: Compound was tested for enantioselectivity of alcohol dehydrogenase in thermoanaerobium brockii at a concentration of 5 ug/mL.
[7] = system: alcohol dehydrogenase (Saccharomyces cerevisiae); experiment: Compound was tested for enantioselectivity of alcohol dehydrogenase in yeast at a concentration of 100 ug/mL.
[8] = molecular target: Alcohol dehydrogenase (Equus caballus) (UniProt P00327+P00328); experiment: Compound was tested for enantioselectivity of alcohol dehydrogenase in horse liver at a concentration of 10 ug/mL.
[9] = system: alcohol dehydrogenase (Lactobacillus kefiri); experiment: Compound was tested for enantioselectivity of alcohol dehydrogenase in lactobacillus kefir at a concentration of 50 ug/mL.

Compound | Km [1] | half-life [2] | k cat [3] | k cat/Kuncat [3] | (kcat/KM)/kuncat [4] | (kcat/KM)/kuncat [5] | Selectivity [6] | Selectivity [7] | Selectivity [8] | Selectivity [9]
CC(=O)CCOc1ccc2ccc(=O)oc2c1 | 150 µM | 4 min | 0.0078 s⁻¹ | 390 | 2600000 M⁻¹ | – | – | – | – | –
c1cnoc1 [ISOXAZOLE] | – | – | – | – | – | 3600000 M⁻¹ | – | – | – | –
C[C@H](O)CCOc1ccc2ccc(=O)oc2c1 | – | – | – | – | – | – | 0.00132 µM/s | 0.000599 µM/s | 0.00246 µM/s | 2.67e-05 µM/s
C[C@@H](O)CCOc1ccc2ccc(=O)oc2c1 | – | – | – | – | – | – | 6.61e-06 µM/s | 3.31e-06 µM/s | 0.00014 µM/s | 0.000773 µM/s
